Tests used:
[1] = Coprecipitation of a chemical substance with a tannin or chelating agent and a metal salt in water; type: physicochemical; conditions: (+)-catechin 60 mg and lead acetate 60 mg
Method: After stirring for a while, a coprecipitate was formed.
In a similar manner, for the following combinations of a chemical substance and a metal salt, a proportion of the chemical substance taken into a coprecipitate was determined.
Chemical substance: (B) acephate, (C) acetamiprid, (D) urea;
Chelating agent: (Q) sodium ethylenediamine tetraacetate, (R) aminotrimethylenephosphonic acid;
Metal salt: (b) potassium acetate, (c) manganese acetate, (d) aluminum acetate, (e) nickel acetate, (f) cobalt acetate, (g) calcium acetate, (h) magnesium acetate, (i) magnesium chloride and (j) sodium acetate.
After completion of dissolving, the solution was analyzed for dinotefuran. […] After stirring for a while, a coprecipitate was formed. The supernatant was analyzed for dinotefuran A to determine a proportion of dinotefuran taken into the coprecipitate.

[2] = cited from earlier work

With `CNC(=N[N+](=O)[O-])NCC1CCOC1` (racemic) [dinotefuran, (RS)-1-methyl-2-nitro-3-[(3-tetrahydrofuryl)methyl]guanidine] the “proportion of dinotefuran taken into the coprecipitate” value [1] was 41%.

In the case of `CCOP(=O)(OCC)O/C(=C\Cl)c1ccc(Cl)cc1Cl` [CVP, Chlorfenvin-phos], the water solubility [2] is given as 1500 ppm.

In the case of `C/C(=N\C#N)N(C)Cc1ccc(Cl)nc1` [acetamiprid], the water solubility [2] is listed as 4200 ppm.

In the case of `CCSCc1ccccc1OC(=O)NC` [etiofencarb], the water solubility [2] is listed as 1800 ppm.

For `COc1nc(NC(C)C)nc(NC(C)C)n1` [promethone], the water solubility [2] is given as 750 ppm.

From patent publication US20030013684A1, “Agricultural composition” (priority 2001, published 2003)
